Data reported in BindingDB's records for doi:10.1021/jm051146h (Conforma Therapeutics, 2006).

Target: Heat shock protein HSP 90-beta (Homo sapiens, UniProt P08238)
Experiment: Her-2 Degradation Assay
Method: A fluorescence histogram was generated, and the mean fluorescence intensity (MFI) of each sample was determined using Cellquest software.

Chain of Heat shock protein HSP 90-beta (P08238 whole entry): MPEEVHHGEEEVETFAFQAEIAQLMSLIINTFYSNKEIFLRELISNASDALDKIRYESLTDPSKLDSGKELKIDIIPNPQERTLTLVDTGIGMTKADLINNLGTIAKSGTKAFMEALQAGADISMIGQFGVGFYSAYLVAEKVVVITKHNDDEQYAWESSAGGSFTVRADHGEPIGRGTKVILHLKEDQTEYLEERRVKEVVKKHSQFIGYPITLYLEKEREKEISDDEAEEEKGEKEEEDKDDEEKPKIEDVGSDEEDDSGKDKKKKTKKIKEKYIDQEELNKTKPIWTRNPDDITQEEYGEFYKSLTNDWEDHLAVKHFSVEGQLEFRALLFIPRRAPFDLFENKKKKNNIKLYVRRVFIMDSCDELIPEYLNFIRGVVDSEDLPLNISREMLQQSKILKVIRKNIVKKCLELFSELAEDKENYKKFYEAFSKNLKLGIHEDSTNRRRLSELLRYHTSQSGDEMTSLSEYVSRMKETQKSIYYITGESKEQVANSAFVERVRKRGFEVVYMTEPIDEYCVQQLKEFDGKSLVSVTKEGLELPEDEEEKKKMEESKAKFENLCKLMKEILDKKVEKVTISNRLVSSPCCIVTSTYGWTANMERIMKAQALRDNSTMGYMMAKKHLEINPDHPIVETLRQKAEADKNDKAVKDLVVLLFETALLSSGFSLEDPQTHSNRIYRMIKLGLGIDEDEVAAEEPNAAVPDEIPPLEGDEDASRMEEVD

In the case of `N#CCCCCn1c(Sc2nc3cccc(Cl)c3s2)nc2c(N)ncnc21` [5-{6-amino-8-[(7-chloro-1,3-benzothiazol-2-yl)sulfanyl]-9H-purin-9-yl}pentanenitrile], the EC50 (pH 7.2, 37 °C) is reported as 110 nM.
With `CC(C)NCCCn1c(Sc2nc3cccc(Cl)c3s2)nc2c(N)ncnc21` [8-[(7-chloro-1,3-benzothiazol-2-yl)sulfanyl]-9-[3-(propan-2-ylamino)propyl]-9H-purin-6-amine] the EC50 was 170 nM.
Molecule `Nc1ncnc2c1nc(Sc1nc3cccc(Cl)c3s1)n2CCCCO` [4-{6-amino-8-[(7-chloro-1,3-benzothiazol-2-yl)sulfanyl]-9H-purin-9-yl}butan-1-ol] has an EC50 (pH 7.2, 37 °C) of 150 nM.
Work on `CCCCn1c(Sc2nc3cccc(F)c3s2)nc2c(N)ncnc21` [9-butyl-8-[(7-fluoro-1,3-benzothiazol-2-yl)sulfanyl]-9H-purin-6-amine] yielded an EC50 (pH 7.2, 37 °C) of 200 nM.
Work on `CC(C)(C)CNCCn1c(Sc2nc3cccc(Cl)c3s2)nc2c(N)ncnc21` yielded an EC50 of 35 nM.
`Nc1ncnc2c1nc(Sc1nc3cccc(Cl)c3s1)n2CCN1CCOCC1` [8-[(7-chloro-1,3-benzothiazol-2-yl)sulfanyl]-9-[2-(morpholin-4-yl)ethyl]-9H-purin-6-amine] gave an EC50 (pH 7.2, 37 °C) of 250 nM.
In the case of `CCCCn1c(Sc2nc3cccc(C)c3s2)nc2c(N)ncnc21` [9-butyl-8-[(7-methyl-1,3-benzothiazol-2-yl)sulfanyl]-9H-purin-6-amine], the EC50 (pH 7.2, 37 °C) is reported as 300 nM.
`CC(=O)OCCCCn1c(Sc2nc3cccc(Cl)c3s2)nc2c(N)ncnc21` [4-{6-amino-8-[(7-chloro-1,3-benzothiazol-2-yl)sulfanyl]-9H-purin-9-yl}butyl acetate] was tested, and the EC50 (pH 7.2, 37 °C) was 130 nM.
In the case of `Nc1ncnc2c1nc(Sc1nc3cccc(Cl)c3s1)n2CCO` [2-{6-amino-8-[(7-chloro-1,3-benzothiazol-2-yl)sulfanyl]-9H-purin-9-yl}ethan-1-ol], the EC50 (pH 7.2, 37 °C) is reported as 300 nM.
`CC(=O)OCCCn1c(Sc2nc3cccc(Cl)c3s2)nc2c(N)ncnc21` [3-{6-amino-8-[(7-chloro-1,3-benzothiazol-2-yl)sulfanyl]-9H-purin-9-yl}propyl acetate] gave an EC50 (pH 7.2, 37 °C) of 90 nM.
Molecule `CCCCn1c(Sc2nc3c(Cl)cccc3s2)nc2c(N)ncnc21` [9-butyl-8-[(4-chloro-1,3-benzothiazol-2-yl)sulfanyl]-9H-purin-6-amine] has an EC50 (pH 7.2, 37 °C) of 15000 nM.
`CCCCn1c(Sc2nc3cccc(OCC)c3s2)nc2c(N)ncnc21` [9-butyl-8-[(7-ethoxy-1,3-benzothiazol-2-yl)sulfanyl]-9H-purin-6-amine] showed an EC50 (pH 7.2, 37 °C) of 100000 nM.
With `Nc1ncnc2c1nc(Sc1nc3cccc(Cl)c3s1)n2CCNC1CC1` [8-[(7-chloro-1,3-benzothiazol-2-yl)sulfanyl]-9-[2-(cyclopropylamino)ethyl]-9H-purin-6-amine] the EC50 was 110 nM.
In the case of `CCn1c(Sc2nc3cccc(Cl)c3s2)nc2c(N)ncnc21` [8-[(7-chloro-1,3-benzothiazol-2-yl)sulfanyl]-9-ethyl-9H-purin-6-amine], the EC50 (pH 7.2, 37 °C) is reported as 200 nM.
With `CCCCn1c(Sc2nc3ccccc3s2)nc2c(N)ncnc21` [8-(1,3-benzothiazol-2-ylsulfanyl)-9-butyl-9H-purin-6-amine] the EC50 (pH 7.2, 37 °C) was 5000 nM.
Work on `CCCCn1c(Sc2nc3cccc(OC)c3s2)nc2c(N)ncnc21` [9-butyl-8-[(7-methoxy-1,3-benzothiazol-2-yl)sulfanyl]-9H-purin-6-amine] yielded an EC50 (pH 7.2, 37 °C) of 190 nM.
`CCCCn1c(Sc2nc3cncc(Cl)c3s2)nc2c(N)ncnc21` [9-butyl-8-({7-chloropyrido[3,4-d][1,3]thiazol-2-yl}sulfanyl)-9H-purin-6-amine] gave an EC50 of 280 nM.
With `CC(=O)OCCCn1c(Sc2nc3cncc(Cl)c3s2)nc2c(N)ncnc21` [3-[6-amino-8-({7-chloropyrido[3,4-d][1,3]thiazol-2-yl}sulfanyl)-9H-purin-9-yl]propyl acetate] the EC50 was 170 nM.
In the case of `Nc1ncnc2c1nc(Sc1nc3cccc(Cl)c3s1)n2CCCO` [3-{6-amino-8-[(7-chloro-1,3-benzothiazol-2-yl)sulfanyl]-9H-purin-9-yl}propan-1-ol], the EC50 (pH 7.2, 37 °C) is reported as 150 nM.
`CC(C)(C)NCCCn1c(Sc2nc3cccc(Cl)c3s2)nc2c(N)ncnc21` [9-[3-(tert-butylamino)propyl]-8-[(7-chloro-1,3-benzothiazol-2-yl)sulfanyl]-9H-purin-6-amine] showed an EC50 of 150 nM.
For `CCCCCn1c(Sc2nc3cccc(Cl)c3s2)nc2c(N)ncnc21` [8-[(7-chloro-1,3-benzothiazol-2-yl)sulfanyl]-9-pentyl-9H-purin-6-amine], the EC50 (pH 7.2, 37 °C) was 700 nM.
`CCCCn1c(Sc2nc3cccc(Br)c3s2)nc2c(N)ncnc21` [8-[(7-bromo-1,3-benzothiazol-2-yl)sulfanyl]-9-butyl-9H-purin-6-amine] was tested, and the EC50 (pH 7.2, 37 °C) was 330 nM.
Work on `CCCCn1c(Sc2nc3cncc(Br)c3s2)nc2c(N)ncnc21` [8-({7-bromopyrido[3,4-d][1,3]thiazol-2-yl}sulfanyl)-9-butyl-9H-purin-6-amine] yielded an EC50 of 400 nM.
`CCCCn1c(Sc2nc3cccc(Cl)c3s2)nc2c(N)ncnc21` was tested, and the EC50 (pH 7.2, 37 °C) was 180 nM.
For `CCCCn1c(Sc2nc3ccc(Cl)c(Cl)c3s2)nc2c(N)ncnc21` [9-butyl-8-[(6,7-dichloro-1,3-benzothiazol-2-yl)sulfanyl]-9H-purin-6-amine], the EC50 (pH 7.2, 37 °C) was 25000 nM.
Work on `CC(C)(C)NCCn1c(Sc2nc3cccc(Cl)c3s2)nc2c(N)ncnc21` [9-[2-(tert-butylamino)ethyl]-8-[(7-chloro-1,3-benzothiazol-2-yl)sulfanyl]-9H-purin-6-amine] yielded an EC50 of 140 nM.
Molecule `CCCCn1c(Sc2nc3ccc(Cl)cc3s2)nc2c(N)ncnc21` [9-butyl-8-[(6-chloro-1,3-benzothiazol-2-yl)sulfanyl]-9H-purin-6-amine] has an EC50 (pH 7.2, 37 °C) of 7000 nM.
With `CCCn1c(Sc2nc3cccc(Cl)c3s2)nc2c(N)ncnc21` [8-[(7-chloro-1,3-benzothiazol-2-yl)sulfanyl]-9-propyl-9H-purin-6-amine] the EC50 (pH 7.2, 37 °C) was 250 nM.
`CC(=O)OCCn1c(Sc2nc3cccc(Cl)c3s2)nc2c(N)ncnc21` [2-{6-amino-8-[(7-chloro-1,3-benzothiazol-2-yl)sulfanyl]-9H-purin-9-yl}ethyl acetate] gave an EC50 (pH 7.2, 37 °C) of 150 nM.
